Assay results: patent US20090197842A1, “Therapeutic Agent for Neuropathic Pain” (JAPAN SCIENCE AND TECHNOLOGY CORPORATION, priority 2005, published 2009)

Experiments:
[1] = test system: pain hypersensitivity model rats; test: Mechanical stimulation test (Dynamic Plantar Aesthesiometer), pain threshold of left plantar; assay type: in vivo; conditions: for maximum pain threshold after the administration: max pressure 15.0 g, measured 30, 60, 90 min after administration; for effect of administration on pain threshold (in words): intraperitoneal, versus 0.5 w/v % CMC-Na control, Dunnett's test
Method: (§1) As experimental animals, pain hypersensitivity model rats obtained by conducting complete ligation on L5/L6 spinal nerves of 6-week-old male rats were used.
(§2) Mechanical stimulation tests were carried out using Dynamic Plantar Aesthesiometer (37400, Ugo Basile), and thermal stimulation tests were carried out using a plantar thermal stimulation tester (Plantar Test 7370, Ugo Basile). The pain threshold of the feet of each model animal was measured, and the animals were divided into groups using Preclinical Package Version 5.0 (SAS Institute Japan), such that the pain thresholds are uniform among the groups as measured prior to administration on each day of the experiment.
(§3) The test substance was prepared as follows. The base material was ground with an agate mortar and a pestle, and 0.5 w/v % carboxyrnethylcellulose sodium (CMC-Na) as a medium was gradually added thereto to form a uniform suspension. The concentration of the liquid to be administered was adjusted with a graduated cylinder or a volumetric flask, only before use.
(§4) The purpose of administering the test substance is to ascertain the direct effect on spinal cord. Since the test substance had been confirmed to pass through the brain barrier, a simple intraperitoneal administration was used. The test substance in a volume of 5 ml/kg was intraperitoneally administered using a syringe barrel and a needle.
(§5) Groups each including five pain hypersensitivity model male rats (355.8 to 457.9 g) were used. Before administration of ICI182.780, and at 30 minutes, 60 minutes and 90 minutes after administration of ICI182.780, the pain threshold of the left plantar of each rat was measured using a stimulating apparatus which had been set such that the maximum pressure would be 15.0 g and the maximum pressure would be reached in 20 seconds.
as §5, with “(290.3” for “(355.8”, “354.8” for “457.9”, “17β-estradiol,” for “ICI182.780,”
Groups each including five pain hypersensitivity model male rats (294.8 to 415.4 g) were used. Before administration of 17β-estradiol+ICI128.780, and at 30 minutes, 60 minutes and 90 minutes after administration of 17β-estradiol+ICI182.780, the pain threshold of the left plantar of each rat was measured using a stimulating apparatus which had been set such that the maximum pressure would be 15.0 g and the maximum pressure would be reached in 20 seconds.
as §5, with “(333.7” for “(355.8”, “408.3” for “457.9”, “fluocinolone acetonide,” for “ICI182.780,”
as §5, with “(261.4” for “(355.8”, “320.9” for “457.9”, “triamcinolone acetonide,” for “ICI182.780,”

[2] = test system: pain hypersensitivity model rats; test: Thermal stimulation test (plantar thermal stimulation tester), pain threshold of left plantar; assay type: in vivo; conditions: thermal stimulation intensity 35; for maximum pain threshold after the administration: measured 30, 60, 90 min after administration
Method: as §1, §2, §3, §4
(§6) Groups each including five pain hypersensitivity model male rats (282.0 to 452.4 g) were used. Before administration of 17β-estradiol+ICI128.780, and at 30 minutes, 60 minutes and 90 minutes after administration of 17β-estradiol+ICI182.780, the pain threshold of the left plantar of each rat was measured using a plantar thermal stimulating apparatus set to a thermal stimulation intensity of 45.
as §6, with “(320.0” for “(282.0”, “449.6” for “452.4”, “fluocinolone acetonide,” for “17β-estradiol+ICI128.780,”, “fluocinolone acetonide,” for “17β-estradiol+ICI182.780,”, “35.” for “45.”

[3] = test system: neuropathic pain model mice; conditions: J. Neurosci. 2004, 2005; cited from earlier work

SMILES	maximum pain threshold after the administration ([1]; 0.3 mg/kg intraperitoneal) [g]	maximum pain threshold after the administration ([1]; 3 mg/kg intraperitoneal) [g]	maximum pain threshold after the administration ([1]; 30 mg/kg intraperitoneal) [g]	effect of administration on pain threshold (in words) [1]	maximum pain threshold after the administration ([1]; 10 mg/kg intraperitoneal) [g]	maximum pain threshold after the administration ([2]; 0.3 mg/kg intraperitoneal) [s]	maximum pain threshold after the administration ([2]; 3 mg/kg intraperitoneal) [s]	maximum pain threshold after the administration ([2]; 10 mg/kg intraperitoneal) [s]	effect of administration on pain threshold (in words) ([2]; intraperitoneal, versus 0.5 w/v % CMC-Na control)	analgesic action against neuropathic pain [3]
C[C@]12CC[C@@H]3c4ccc(O)cc4CC[C@H]3[C@@H]1CC[C@@H]2O [17β-estradiol]	8.1	9.4	10.4	significantly increased the pain threshold	–	–	–	–	–	–
C[C@]12CC[C@@H]3c4ccc(O)cc4C[C@@H](CCCCCCCCC[S+]([O-])CCCC(F)(F)C(F)(F)F)[C@H]3[C@@H]1CC[C@@H]2O (stereo partly drawn) [ICI182.780, 7α-17β-[9-[(4,4,5,5,5-pentafluoropentyl)sulphinyl]nonyl]estra-1,3,5(10)-trien-3,17-diol]	6.7	8.7	10.6	significantly increased the pain threshold	–	–	–	–	–	–
CC1(C)O[C@@H]2C[C@H]3[C@@H]4C[C@H](F)C5=CC(=O)C=C[C@]5(C)[C@@]4(F)[C@@H](O)C[C@]3(C)[C@]2(C(=O)CO)O1 [fluocinolone acetonide]	7.5	11.3	–	significantly increased the pain threshold	11.6	8.0	9.9	9.9	significantly increased the pain threshold	–
CC#C[C@]1(O)CC[C@H]2[C@@H]3CCC4=CC(=O)CCC4=C3[C@@H](c3ccc(N(C)C)cc3)C[C@@]21C [mifepristone]	–	–	–	–	–	–	–	–	–	exhibited an analgesic action against neuropathic pain
CC1(C)O[C@@H]2C[C@H]3[C@@H]4CCC5=CC(=O)C=C[C@]5(C)[C@@]4(F)[C@@H](O)C[C@]3(C)[C@]2(C(=O)CO)O1 [triamcinolone acetonide]	6.6	8.1	8.8	–	–	–	–	–	–	–
